Calls of active or inactive are those of the source. No cut-off for these calls is given here.
Experiments:
Mus musculus [1] = test: Induction of head-twitch response in ip dosed C57BL/6J mouse measured for 20 mins; format: functional
[2] = molecular target: 5-hydroxytryptamine receptor 2A (Homo sapiens) (UniProt P28223); test: Agonist activity at human 5-HT2A receptor expressed in Flp-In T-REx 293 cells assessed as induction of Gq-mediated calcium flux incubated for 1 hr by Flou4-AM dye based FLIPR assay relative to serotonin; format: functional, cell-based
Sequence of 5-hydroxytryptamine receptor 2A (Homo sapiens) (P28223 whole entry): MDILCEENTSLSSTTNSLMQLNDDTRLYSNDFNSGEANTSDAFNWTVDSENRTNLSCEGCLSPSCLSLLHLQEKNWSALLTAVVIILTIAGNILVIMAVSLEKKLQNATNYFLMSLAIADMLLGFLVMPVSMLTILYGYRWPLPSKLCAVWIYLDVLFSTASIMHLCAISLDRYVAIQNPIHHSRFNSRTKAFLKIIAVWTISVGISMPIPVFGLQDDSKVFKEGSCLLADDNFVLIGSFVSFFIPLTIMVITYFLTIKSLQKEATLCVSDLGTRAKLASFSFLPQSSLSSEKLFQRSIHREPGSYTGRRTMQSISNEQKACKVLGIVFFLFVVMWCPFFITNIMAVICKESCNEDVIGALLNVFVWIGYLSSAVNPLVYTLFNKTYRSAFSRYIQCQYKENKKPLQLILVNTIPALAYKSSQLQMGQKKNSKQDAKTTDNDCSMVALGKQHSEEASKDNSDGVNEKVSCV

[3] = molecular target: 5-hydroxytryptamine receptor 2A (Mus musculus) (UniProt P35363); test: Agonist activity at mouse 5-HT2A receptor expressed in Flp-In T-REx 293 cells assessed as induction of Gq-mediated calcium flux incubated for 1 hr by Flou4-AM dye based FLIPR assay relative to serotonin; format: functional, cell-based
Sequence of 5-hydroxytryptamine receptor 2A (Mus musculus) (P35363 whole entry): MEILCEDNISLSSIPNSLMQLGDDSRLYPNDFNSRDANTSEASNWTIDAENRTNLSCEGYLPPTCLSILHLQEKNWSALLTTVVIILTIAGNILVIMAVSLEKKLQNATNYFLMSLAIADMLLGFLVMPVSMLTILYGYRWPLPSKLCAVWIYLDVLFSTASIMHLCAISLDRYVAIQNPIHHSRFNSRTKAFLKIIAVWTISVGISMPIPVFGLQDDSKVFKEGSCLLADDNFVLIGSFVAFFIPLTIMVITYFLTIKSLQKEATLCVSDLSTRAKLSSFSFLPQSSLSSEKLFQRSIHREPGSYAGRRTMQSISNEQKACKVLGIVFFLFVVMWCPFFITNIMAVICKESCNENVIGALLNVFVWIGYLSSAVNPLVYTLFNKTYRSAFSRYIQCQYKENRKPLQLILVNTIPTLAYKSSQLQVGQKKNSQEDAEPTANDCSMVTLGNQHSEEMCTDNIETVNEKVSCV

[4] = molecular target: 5-hydroxytryptamine receptor 2A (Mus musculus, UniProt P35363); test: Agonist activity at mouse 5-HT2A receptor expressed in Flp-In T-REx 293 cells assessed as induction of Gq-mediated calcium flux incubated for 1 hr by Flou4-AM dye based FLIPR assay; format: functional, cell-based
Sequence of 5-hydroxytryptamine receptor 2A (P35363 whole entry): as above

Mus musculus [5] = test: Induction of head-twitch response in C57BL/6J mouse at 0.03 to 3 mg/kg, ip measured for 20 mins; format: functional, organism-based

CN(C)CCc1c[nH]c2cccc(OP(=O)(O)O)c12 [PSILOCYBIN]
Activity (Mus musculus [1]): Dose-dependent effect | ED50 (Mus musculus [1]): 0.4 mg/kg

CN(C)CCc1c[nH]c2cccc(O)c12 [PSILOCIN]
Emax [2]: 73% | Emax [3]: 72% | EC50 [4]: 9.9 nM

CNCCc1c[nH]c2cccc(O)c12
Emax [2]: 93% | Emax [3]: 99% | EC50 [4]: 19 nM

CNCCc1c[nH]c2cccc(OP(=O)(O)O)c12
Activity (Mus musculus [5]): inactive
